Assay in all cases: inhibition of tumour cell growth, NCI panel, 48 h
Assay [1] concerns Hs-578T.
In assay [2] the test system is DU-145.
In assay [3] the test system is SR.
Assay [4] relates to SN12C.
The subject of assay [5] is SNB-19.
In assay [6] the test system is SK-MEL-2.
The test system of assay [7] is BT-549.
For assay [8], the system named is KM12.
The test system of assay [9] is SK-MEL-5.
Assay [10] concerns SK-OV-3.
The test system of assay [11] is UACC-62.
Assay [12] has as its system UO-31.
For assay [13], the system named is A498.
For assay [14], the system named is NCI-H522.
The test system of assay [15] is RXF 393.
Assay [16] concerns SF-268.
In assay [17] the test system is IGROV-1.
The test system of assay [18] is OVCAR-4.
For assay [19], the system named is HT-29.
Assay [20] deals with OVCAR-8.

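Where inhibition never reached the appropriate level, the endpoint shown equals the highest concentration tested. Otherwise, values were interpolated linearly from a five-concentration, 48-hour dose response in 96-well plates. GI50 = concentration required for 50% inhibition of growth.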 Activity calls are given as the source filed them. Rule as the data show it: active = GI50 up to about 1.1 µM and inactive = higher. Where only a bound is given, the exact number is not on record here.

`NNC(=O)CCSc1ccccc1`: the GI50 in assay [1], in [2], in assay [3], in [4], in assay [5] and in assay [6] was > 100 µM (inactive) throughout. Further, the GI50 in assay [7], in assay [8], in assay [9], in assay [10], in [11] and in [12] was > 100 µM (inactive) throughout. For the same compound, the GI50 in assay [13], in assay [14], in assay [15], in assay [16], in assay [17] and in assay [18] was > 100 µM (inactive) throughout. For the same compound, the GI50 in [19] and in assay [20] was > 100 µM (inactive) in each case.
Regarding `C1CN(c2nnc(N3CCC3)nn2)C1`, the GI50 is 39 µM (inactive) in assay [1]; > 100 µM (inactive) in assay [2]; > 100 µM (inactive) in assay [3]; 29 µM (inactive) in assay [4]; > 67.9 µM (inactive) in [5]; 44.1 µM (inactive) in [6]. The GI50 in assay [7] is > 65.9 µM (inactive); in assay [8] it was > 89.5 µM (inactive); in assay [9], 25.2 µM (inactive); in assay [10], > 100 µM (inactive); in assay [11], 19.3 µM (inactive); in assay [12], > 100 µM (inactive). Besides, the GI50 in assay [13] is > 100 µM (inactive); in assay [14], 44.4 µM (inactive); in assay [15], > 63.5 µM (inactive); in [16] it was 90.6 µM (inactive); in assay [17], > 100 µM (inactive); in [18] it was 40.9 µM (inactive). Also, the GI50 in assay [19] was 35.6 µM (inactive); in assay [20], > 100 µM (inactive).
As for `NCC(=O)C(O)C(O)C(O)CO` (centres undefined), the GI50 in [1], in assay [2], in assay [3], in assay [4], in [5] and in assay [6] was > 100 µM (inactive) each time. Besides, the GI50 in assay [7], in [8], in assay [9], in assay [10], in assay [11] and in assay [12] was > 100 µM (inactive) throughout. The GI50 in assay [13], in assay [14], in [15], in [16], in assay [17] and in [18] was > 100 µM (inactive) throughout. In addition, the GI50 in assay [19] and in assay [20] was > 100 µM (inactive) throughout.
As to `CC(=O)NC1C(OCc2ccccc2)OC(CO)C(O)C1OCC(=O)N1CCCC1C(=O)NC(CCC(=O)NCCCCCNc1c2ccccc2nc2cccc([N+](=O)[O-])c12)C(N)=O` (centres undefined), the GI50 in assay [1] is 0.0345 µM (active); in assay [2], 0.0192 µM (active); in [3] it was 0.281 µM (active); in [4], 0.011 µM (active); in assay [5], 0.028 µM (active); in assay [6], 0.019 µM (active). Moreover, the GI50 in [7] was 0.0524 µM (active); in assay [8], 0.02 µM (active); in assay [9], 0.00853 µM (active); in assay [10], 0.0869 µM (active); in assay [11], 0.0225 µM (active); in [12], 0.0422 µM (active). In addition, the GI50 was 0.0568 µM (active) in assay [13]; 0.0353 µM (active) in assay [14]; 0.00938 µM (active) in assay [15]; 0.0201 µM (active) in assay [16]; 0.232 µM (active) in assay [17]; 0.0982 µM (active) in assay [18]. The results for the GI50 in assay [19] and in [20] were 0.00125 µM (active) and 0.00497 µM (active), respectively.
Turning to `Cc1ccnc(NS(=O)(=O)c2ccc(N=[N+]=[N-])cc2)n1`, the GI50 was > 100 µM (inactive) in assay [1]; > 100 µM (inactive) in assay [2]; 1.34 µM (inactive) in [3]; > 100 µM (inactive) in assay [4]; > 100 µM (inactive) in assay [5]; > 100 µM (inactive) in assay [6]. The GI50 in assay [7], in assay [8], in assay [9], in assay [10], in assay [11] and in [12] was > 100 µM (inactive) each time. For the same compound, the GI50 in assay [13], in assay [14], in assay [15], in [16], in assay [17] and in assay [18] was > 100 µM (inactive) throughout. The GI50 in assay [19] and in assay [20] was > 100 µM (inactive) each time.
Consider `CCOC(=O)Nc1nc(-c2ccccc2)c(C)s1`, for which the GI50 in assay [1] was > 100 µM (inactive); in assay [2], 52.6 µM (inactive); in assay [3], 49.9 µM (inactive); in assay [4], > 100 µM (inactive); in assay [5] it was > 100 µM (inactive); in assay [6] it was > 100 µM (inactive). Also, the GI50 in assay [7] was 53.8 µM (inactive); in assay [8], > 100 µM (inactive); in assay [9], > 100 µM (inactive); in [10] it was > 100 µM (inactive); in assay [11], > 100 µM (inactive); in assay [12], 60 µM (inactive). For the same compound, the GI50 was > 100 µM (inactive) in assay [13]; 28 µM (inactive) in assay [14]; > 100 µM (inactive) in [15]; > 100 µM (inactive) in assay [16]; 44.2 µM (inactive) in assay [17]; 81.5 µM (inactive) in assay [18]. Besides, the figures for the GI50 in assay [19] and in [20] were 48.6 µM (inactive) and > 100 µM (inactive), respectively.
As for `C/C(=N\Nc1nc2ccccc2s1)c1cc(C)ncn1`, the GI50 in assay [1] is 0.738 µM (active); in assay [2], 2.19 µM (inactive); in assay [3], 0.259 µM (active); in assay [4] it was 0.392 µM (active); in assay [5] it was 6.68 µM (inactive); in assay [6], 3.78 µM (inactive). Also, the GI50 was 6.79 µM (inactive) in assay [7]; 0.767 µM (active) in [8]; 0.459 µM (active) in assay [9]; 1.28 µM (inactive) in assay [10]; 0.979 µM (active) in assay [11]; 0.389 µM (active) in assay [12]. For the same compound, the GI50 was 9.93 µM (inactive) in assay [13]; 0.07 µM (active) in assay [14]; 3.02 µM (inactive) in assay [15]; 0.318 µM (active) in assay [16]; 0.824 µM (active) in [17]; 1.7 µM (inactive) in assay [18]. In addition, the GI50 was 0.0637 µM (active) in assay [19] and 0.29 µM (active) in assay [20].
As for `C/C=C/[C@H](O[Si](C)(C)C(C)(C)C)[C@@H](O)/C=C/C(=O)OCC`, the GI50 in assay [1] is 29.9 µM (inactive); in [2], 43.8 µM (inactive); in [3] it was 21.1 µM (inactive); in assay [4], 23.1 µM (inactive); in [5] it was 14.3 µM (inactive); in assay [6], 26.5 µM (inactive). The GI50 is 31.8 µM (inactive) in assay [7]; 18 µM (inactive) in [8]; 16.3 µM (inactive) in assay [9]; > 10 µM (inactive) in [10]; 18.8 µM (inactive) in assay [11]; 24 µM (inactive) in [12]. The GI50 in assay [13] was 30.3 µM (inactive); in assay [14] it was 16.7 µM (inactive); in assay [15], 21.8 µM (inactive); in [16], 24 µM (inactive); in assay [17] it was 22.8 µM (inactive); in assay [18], 11.9 µM (inactive). For the same compound, the GI50 in assay [19] was 21.5 µM (inactive); in assay [20] it was 18.6 µM (inactive).
For `Cn1c(=O)c2c(nc3n(Cc4ccccc4)c(=O)c(NCCCBr)cn23)n(C)c1=O`, the GI50 in assay [1] is 27.3 µM (inactive); in [2], > 100 µM (inactive); in assay [3] it was 23 µM (inactive); in assay [4], > 100 µM (inactive); in assay [5] it was 64.4 µM (inactive); in assay [6] it was > 100 µM (inactive). Moreover, the GI50 in [7] is > 100 µM (inactive); in assay [8], > 100 µM (inactive); in [9], > 100 µM (inactive); in assay [10], 36.6 µM (inactive); in [11], > 100 µM (inactive); in [12] it was > 100 µM (inactive). Also, the GI50 is > 100 µM (inactive) in [13]; 54.3 µM (inactive) in assay [14]; 71 µM (inactive) in assay [15]; 41.2 µM (inactive) in assay [16]; 46.7 µM (inactive) in assay [17]; > 100 µM (inactive) in assay [18]. For the same compound, the GI50 was > 100 µM (inactive) in assay [19] and 84.9 µM (inactive) in assay [20].
For `CN(C)/C=N/S(=O)(=O)c1nn2c(C=O)c(-c3ccc(Cl)cc3)nc2s1`, the GI50 in assay [1] was 3.43 µM (inactive); in assay [2], 2.12 µM (inactive); in [3], 0.767 µM (active); in assay [4], 2.23 µM (inactive); in [5], 14.3 µM (inactive); in assay [6], 7.11 µM (inactive). Moreover, the GI50 in assay [7] was 0.713 µM (active); in assay [8], 3.63 µM (inactive); in assay [9], 1.58 µM (inactive); in assay [10], 15.8 µM (inactive); in assay [11] it was 3.91 µM (inactive); in assay [12] it was 1.02 µM (active). The GI50 in assay [13] was 16.2 µM (inactive); in assay [14] it was 0.557 µM (active); in [15], 1.51 µM (inactive); in [16] it was 3.46 µM (inactive); in assay [18], 1.81 µM (inactive); in assay [19] it was 0.196 µM (active). Further, the GI50 in assay [20] is 1.31 µM (inactive).

For the origin of these results see ChEMBL document CHEMBL1201862, “PubChem BioAssay data set” (2004).
